Results as given in patent US20180353524A1, “CANCER TREATMENT USING 2-DEOXY-2-FLUORO-L-FUCOSE IN COMBINATION WITH A CHECKPOINT INHIBITOR” (SEATTLE GENETICS, INC., priority 2015, published 2018).

System: dendritic cells
Experiment: DC markers in co-cultures of T-cells and DCs (FACS)
Format: cell-based, human
Protocol: T-cells were isolated from 10 mL of whole blood which was centrifuged first at 1200 rpm (300×g) for 10 min (without brakes). The top layer containing platelets was removed carefully without disrupting the white blood cell layer. Then RosetteSep™ Human T-Cell Enrichment Cocktail (Pan T-cells from StemCell technologies, Vancouver, BC) was added to the remaining blood (500 μL/10 mL blood). This was incubated for 20 min and then 1 mL FBS was added along with 10 mL PBS. Histopaque (20-25 mL) placed in a 50 mL Falcon the prepared blood/PBS solution was overlaid very slowly. This was centrifuged with no brake (25° C., 1500 rpm, 25 min). The top layer was removed and the T-cells in the buffy coat layer were then removed to a new 50 mL tube. The T-cells were washed with PBS, resuspended in 1 mL ACK lysis buffer and topped up to 25 mL, incubated for 5 min, brought up to 50 mL with PBS, and then pelleted. This red blood cell lysis step was repeated a second time.
PBMCs were isolated similarly to the T-cells, except that 90 mL of blood were used and after the removal of platelets the RosetteSep™ Human T-Cell Enrichment Cocktail was not added, instead an equal volume of PBS (90 mL) was added before overlaying on Histopaque. Centrifugation over Histopaque as above results in PBMC-containing buffy coat.
DCs (20000-30000/well) and 10 times as many T-cells were plated in each well in a total of 200 μL/well in DC medium. Co-cultures were incubated 24 h after which cells evaluated for DC maturation markers as described below.
Transwell assays were performed in 24-well plates. Co-cultures were plated out as described above with the final volume per well of 500 μL. For the transwell samples DCs were plated in the well and T-cells placed into the insert. The cells were then incubated 24 h and examined in the same manner as co-cultures without transwells.
DCs were grown as described until day 8 when there were split into two flasks, one with normal media and the other in serum free media. While no serum was present, X-VIVO™ 15 media contains growth factors which help maintain the health of the cultures. The co-culture experiment was performed as above in 48-well plates.
Co-cultures were examined using FACS analysis. After incubation, cells were washed in BD stain buffer (BSA) with Human Fc block (EMD Millipore) and incubated on ice for 30 min. Cells were then stained with fluorescently labeled anti-MHCII, anti-CD86, anti-CD83, and anti-CD40 primary antibodies (BD, 1:100 or 1:50 in BD stain buffer (BSA)) or with appropriate isotype controls (ice, dark, 40 min). Cells were then washed twice in BD stain buffer (BSA) and analyzed on an LSRII flow cytometer.

## C[C@@H]1OC(O)[C@@H](F)[C@H](O)[C@@H]1O (stereo partly drawn) [2-deoxy-2-fluoro-L-fucose]
DCs alone, with or without treatment
  DC activation and maturation markers, DCs alone: do not show changes in these markers
DCs co-cultured 24 h with autologous T-cells expanded with 100-200 μM, serum-containing medium
  DC activation and maturation markers MHCII, CD86, CD83 and CD40 (MFI vs control co-culture): increases in the DC activation and maturation markers MHCII, CD86, CD83 and CD40
T-cells and DCs separated by transwell inserts
  DC activation and maturation markers, transwell co-culture: do not occur when transwell inserts are used
serum-free medium (no antigen)
  DC activation and maturation markers, serum-free co-culture: does not provide the same increases
